Data set [1] has as its system human A2780 ovarian carcinoma cells. Put plainly: Determination of antiproliferative activity on A2780 cells (MTT). The data set is classed as cell-based. Conditions: four days of incubation; for IC50: Homo sapiens, 96 h, read-out: Cellular activity pIC50 (converted). As to the method:
Cellular activity of the compounds of formula (I) was determined on A2780 tumour cells using a colorimetric assay for cell toxicity or survival (Mosmann Tim, Journal of Immunological Methods 65: 55-63, 1983)(see example C.2).
All compounds tested were dissolved in DMSO and further dilutions were made in culture medium. Final DMSO concentrations never exceeded 0.1% (v/v) in cell proliferation assays. Controls contained A2780 cells and DMSO without compound and blanks contained DMSO but no cells. MTT was dissolved at 5 mg/ml in PBS. A glycine buffer comprised of 0.1 M glycine and 0.1 M NaCl buffered to pH 10.5 with NaOH (1 N) was prepared (all reagents were from Merck).
The human A2780 ovarian carcinoma cells (a kind gift from Dr. T. C. Hamilton [Fox Chase Cancer Centre, Pennsylvania, USA]) were cultured in RPMI 1640 medium supplemented with 2 mM L-glutamine, 50 μg/ml gentamicin and 10% fetal calf serum. Cells were routinely kept as monolayer cultures at 37° C. in a humidified 5% CO2 atmosphere. Cells were passaged once a week using a trypsin/EDTA solution at a split ratio of 1:40. All media and supplements were obtained from Life Technologies. Cells were free of mycoplasma contamination as determined using the Gen-Probe Mycoplasma Tissue Culture kit (supplier: BioMérieux).
Cells were seeded in NUNC™ 96-well culture plates (Supplier: Life Technologies) and allowed to adhere to the plastic overnight. Densities used for plating were 1500 cells per well in a total volume of 200 μl medium. After cell adhesion to the plates, medium was changed and drugs and/or solvents were added to a final volume of 200 μl. Following four days of incubation, medium was replaced by 200 μl fresh medium and cell density and viability was assessed using an MTT-based assay. To each well, 25 μl MTT solution was added and the cells were further incubated for 2 hours at 37° C. The medium was then carefully aspirated and the blue MTT-formazan product was solubilized by addition of 25 μl glycine buffer followed by 100 μl of DMSO. […] Within an experiment, the results for each experimental condition are the mean of 3 replicate wells. For initial screening purposes, compounds were tested at a single fixed concentration of 10^−6 M. For active compounds, the experiments were repeated to establish full concentration-response curves. For each experiment, controls (containing no drug) and a blank incubation (containing no cells or drugs) were run in parallel. The blank value was subtracted from all control and sample values. For each sample, the mean value for cell growth (in absorbance units) was expressed as a percentage of the mean value for cell growth of the control. […] Herein the effects of test compounds are expressed as pIC50 (the negative log value of the IC50-value).

In data set [2] the target is histone deacetylase (HDAC), HeLa nuclear extracts. Nature of the data set: In vitro assay for inhibition of histone deacetylase. The data set is classed as biochemical. The conditions noted are these: [3H]acetylated histone H4 peptide substrate. Details: key: pIC50 = negative log of IC50. On the procedure: The in vitro assay for inhibition of histone deacetylase (see example C.1) measures the inhibition of HDAC enzymatic activity obtained with the compounds of formula (I).
HeLa nuclear extracts (supplier: Biomol) were incubated at 60 μg/ml with 2×10^−8 M of radiolabeled peptide substrate. As a substrate for measuring HDAC activity a synthetic peptide, i.e. the amino acids 14-21 of histone H4, was used. The substrate is biotinylated at the NH2-terminal part with a 6-aminohexanoic acid spacer, and is protected at the COOH-terminal part by an amide group and specifically [^3H]acetylated at lysine 16. The substrate, biotin-(6-aminohexanoic)Gly-Ala-([^3H]-acetyl-Lys-Arg-His-Arg-Lys-Val-NH2), was added in a buffer containing 25 mM Hepes, 1 M sucrose, 0.1 mg/ml BSA and 0.01% Triton X-100 at pH 7.4. After 30 min the deacetylation reaction was terminated by the addition of HCl and acetic acid. (final concentration 0.035 mM and 3.8 mM respectively). After stopping the reaction, the free ^3H-acetate was extracted with ethylacetate. After mixing and centrifugation, the radioactivity in an aliquot of the upper (organic) phase was counted in a β-counter.
For each experiment, controls (containing HeLa nuclear extract and DMSO without compound), a blank incubation (containing DMSO but no HeLa nuclear extract or compound) and samples (containing compound dissolved in DMSO and HeLa nuclear extract) were run in parallel. In first instance, compounds were tested at a concentration of 10^−5M. […] In each test the blank value was substracted from both the control and the sample values. The control sample represented 100% of substrate deactylation. For each sample the radioactivity was expressed as a percentage of the mean value of the controls. […] Herein the effects of test compounds are expressed as pIC50 (the negative log value of the IC50-value).

Data set [3] can be described thus: Kinetic solubility in aqueous media. Format: physicochemical. The conditions noted are these: aqueous buffer, kinetic from dmso stock; phosphate citrate buffer pH 7.4, turbidity by nephelometer; read-out: Solubility Score. As to the method:
Kinetic solubility in aqueous media measures the ability of a compound to stay in aqueous solution upon dilution (see example C.3).
DMSO-stock solutions are diluted with a single aqueous buffer solvent in 3 consecutive steps. For every dilution turbidity is measured with a nephelometer.
In the first dilution step, 10 μl of a concentrated stock-solution of the active compound, solubilized in DMSO (5 mM), was added to 100 μl phosphate citrate buffer pH 7.4 and mixed. In the second dilution step, an aliquot (20 μl) of the first dilution step was further dispensed in 100 μl phosphate citrate buffer pH 7.4 and mixed. Finally, in the third dilution step, a sample (20 μl) of the second dilution step was further diluted in 100 μl phosphate citrate buffer pH 7.4 and mixed. All dilutions were performed in 96-well plates. Immediately after the last dilution step the turbidity of the three consecutive dilution steps were measured with a nephelometer. Dilution was done in triplicate for each compound to exclude occasional errors. Based on the turbidity measurements a ranking is performed into 3 classes. Compounds with high solubility obtained a score of 3 and for this compounds the first dilution is clear. Compounds with medium solubility obtained a score of 2. For these compounds the first dilution is unclear and the second dilution is clear. […] The solubility of 14 compounds was measured.

Experiment in data set [4]: not given
The source holds these as a separate data set.

Structures are written as SMILES. In brackets after ≈: the same amount, converted by molar mass. Read-outs that look alike come from different tables or passages of the source. Some results are limits rather than exact numbers.

As a reminder, the melting point is the temperature, or range, at which the solid turns liquid. What is called solubility is how much of the substance goes into solution per volume. `O=C(NO)c1cnc(NCC2CN(S(=O)(=O)c3ccc4ccccc4c3)CCO2)nc1` (stereo not shown) [Co. No. 9] displayed a melting point of 226 °C. In data set [1], the IC50 was 2150 nM. For the same compound, in data set [2], the “Enzyme activity pIC50” value is recorded as 7.161. The solubility in data set [3] is above 454 µM.
With `COc1cc(N)c(Cl)cc1C(=O)NC1CCN(CCCOc2ccc(F)cc2)CC1OC` (stereo not shown) [Cisapride], the “% metabolism” value in data set [4] (human, 15 min, 5 μM) is reported as 45%.
As for `O=C(NO)c1ccc(NC2CCCN(S(=O)(=O)c3ccc4c(c3)CCCC4)CC2)nc1` (stereo not shown) [Co. No. 6], in data set [1], the IC50 was 4520 nM. In addition, the “Enzyme activity pIC50” value in data set [2] was determined as 6.853. The solubility in data set [3] fell in the range of 75.8 to 454 µM (≈ 33.7 to 202 µg/mL).
In turn, `O=C(NO)c1cnc(NC2CCCN(S(=O)(=O)c3ccc4ccccc4c3)CC2)nc1` (stereo not shown) [Co. No. 3] gave a melting point of 140 °C. Also, the IC50 in data set [1] was 3120 nM. Besides, the “Enzyme activity pIC50” value in data set [2] is recorded as 7.306. Also, the solubility in data set [3] lay in the range of 75.8 to 454 µM (≈ 33.5 to 201 µg/mL).
For `CCCO` [propanol], the “% metabolism” value in data set [4] (after 15 min of incubation with active microsomes (1 mg/ml), compound 5 μM) amounted to 25%.
For the compound `O=C(NO)c1cnc(NC2CCN(S(=O)(=O)c3ccc(-c4ccccc4)cc3)CC2)nc1` [compound 14], the “Cellular activity pIC50” value in data set [1] is 5.201. Besides, the “Enzyme activity pIC50” value in data set [2] stood at 7.077.
`O=C(NO)c1cnc(NCC2CCCN(S(=O)(=O)c3ccc4ccccc4c3)C2)nc1` (stereo not shown) [Co. No. 8] yielded a melting point of 137 °C. In addition, the IC50 in data set [1] was 1900 nM. Besides, the “Enzyme activity pIC50” value in data set [2] was found to be 7.23. Also, the solubility in data set [3] was below 75.8 µM.
Turning to `O=C(NO)c1ccc(NC2CCCN(S(=O)(=O)c3ccc4c(c3)CCCC4)CC2)nc1` (stereo not shown) (hydrate or solvate) [Co. No. 6], the melting point was found to be 115 °C.
`O=C(NO)c1cnc(NC2CCCN(S(=O)(=O)c3ccc(-c4ccccc4)cc3)CC2)nc1` (stereo not shown) [Co. No. 4] gave a melting point of 227 °C. The IC50 in data set [1] is 1450 nM. In data set [2], the “Enzyme activity pIC50” value is reported as 7.314. Moreover, in data set [3], the solubility is below 75.8 µM.
Taken in the same sequence, the figures for `O=C(NO)c1cnc(NCC2CCN(S(=O)(=O)c3ccc4ccccc4c3)CC2)nc1` [Co. No. 7] were 240 °C, 7780 nM, 7.408 and below 75.8 µM.
Consider `O=C(NO)c1ccc(NC2CCCN(S(=O)(=O)c3ccc(-c4ccccc4)cc3)CC2)nc1` (stereo not shown) [Co. No. 2], for which the IC50 in data set [1] was 1570 nM. Moreover, the “Enzyme activity pIC50” value in data set [2] is 6.871. Besides, the solubility in data set [3] is below 75.8 µM.
The compound `O=C(NO)c1ccc(NC2CCCN(S(=O)(=O)c3ccc(-c4ccccc4)cc3)CC2)nc1` (stereo not shown) (hydrate or solvate) [Co. No. 2] gave a melting point of 115 °C.
The compound `O=C(NO)c1cnc(NC2CCN(S(=O)(=O)c3ccc4ccccc4c3)CC2)nc1` [Co. No. 5] showed a melting point of 256 °C. Besides, the IC50 in data set [1] was 3370 nM. The “Enzyme activity pIC50” value in data set [2] amounted to 7.525. Also, in data set [3], the solubility is above 454 µM.
On the same counts, the results for `O=C(NO)c1ccc(NC2CCN(S(=O)(=O)c3ccc4ccccc4c3)CC2)nc1` [Co. No. 1] are 160 °C, 2450 nM, 7.676 and above 454 µM.

For the origin of these results see patent US8916554B2, “Amino-derivatives as novel inhibitors of histone deacetylase” (Janssen Pharmaceutica N.V., priority 2002, dated 2014).
